US4238496A, “4-Substituted thiazolyl-2-oxamic acids and salts and esters thereof” (Boehringer Ingelheim GmbH, priority 1978, dated 1980)
Counter-ions that a name gives are not always drawn. Like-named read-outs stand apart in the source and are kept apart here.

Tested on: Passive Cutaneous Anaphylaxis
Assay: Passive Cutaneous Anaphylaxis test (PCA) in rats
Type: in vivo
Conditions: Rattus norvegicus, read-out: ED50 (dose reducing the size of the blued area by 50%)
Protocol: The compounds of the present invention, that is, those embraced by formula I and their non-toxic, pharmacologically acceptable salts, have useful pharmacodynamic properties.
The anti-allergic properties were ascertained in rats by the Passive Cutaneous Anaphylaxis test (PCA) essentially as described by Goose and Blair (Immunology 16: 749-760,1969). Rat serum was diluted so that the skin reactions with diameters between 10 and 15 mm in unsensitized rats were produced. The PCA test was performed in duplicate by injecting 0.1 ml of this antiserum dilution on each side of the shaved back of rats. Rats so treated were injected intravenously (i.v.) twenty-four hours later with 5 mg ovalbumin in 0.5 ml of 2% Evans Blue and the test substance to be tested by the i.v. route. In the case of substances tested orally, the i.v. ovalbumin challenge was 0.015 mg in the 0.5 ml of 2% Evans Blue solution administered 20-30 minutes after the oral administration of the test substance. Thirty minutes after challenge the rats were killed by CO2 asphyxiation and the skin reflected the diameters, in millimeters, of the blued areas were measured and the mean diameter determined. The circular area was calculated and the mean area in square millimeters of the control group was considered as 100% and the results of the compound test groups were expressed as a percentage change from these control values. From dose response curves the dose reducing the size of the blued area by 50% (ED50) was estimated.

[1] = iv, test substance given i.v. with 5 mg ovalbumin in 0.5 ml of 2% Evans Blue
[2] = p.o., 0.015 mg ovalbumin i.v. challenge 20-30 minutes after oral administration

Q: For `COc1ccc(-c2csc(NC(=O)C(=O)O)n2)c(OC)c1` [4-(2',4'4'-dimethoxy-phenyl)-thiazolyl-2-oxamic acid], which ED50 [1] is on record?
A: 0.39 mg/kg

Q: `COc1ccc(OC)c(-c2csc(NC(=O)C(=O)O)n2)c1` [4-(2',5'-dimethoxy-phenyl)-thiazolyl-2-oxamic acid ethanolamine salt] was tested. Which ED50 [1] did it give?
A: 0.4 mg/kg

Q: Which ED50 [1] does the source give for `COc1ccccc1-c1csc(NC(=O)C(=O)O)n1` [4-(2'-Methoxy-phenyl)-thiazolyl-2-oxamic acid] here?
A: 1.08 mg/kg

Q: Which ED50 [1] does the source give for `CN(C)c1cccc(-c2csc(NC(=O)C(=O)O)n2)c1` [4-(3' -dimethylamino-phenyl)-thiazolyl-2-oxamic acid ethanolamine salt] here?
A: 0.34 mg/kg

Q: What about the ED50 [2] of the same compound?
A: 1.06 mg/kg

Q: `COc1ccc(-c2csc(NC(=O)C(=O)O)n2)cc1OC` [4-(3',4'-dimethoxy-phenyl)-thiazolyl-2-oxamic acid] was tested. Which ED50 [1] did it give?
A: 0.13 mg/kg

Q: How did the ED50 [1] turn out when `COc1cccc(-c2csc(NC(=O)C(=O)O)n2)c1` [4-(3'-methoxy-phenyl)-thiazolyl-2-oxamic acid] was run?
A: 0.16 mg/kg

Q: What about the ED50 [2] of the same compound?
A: 2 mg/kg

Q: For `CN(C)c1ccc(-c2csc(NC(=O)C(=O)O)n2)cc1` [4-(4'-dimethylamino-phenyl)-thiazolyl-2-oxamic acid], which ED50 [1] is on record?
A: 0.02 mg/kg

Q: What about the ED50 [2] of the same compound?
A: 0.34 mg/kg

Q: Which ED50 [1] does the source give for `O=C(O)C(=O)Nc1nc(-c2ccc3c(c2)OCCO3)cs1` [4-(benzodioxanyl)-thiazolyl-2-oxamic acid ethanolamine salt] here?
A: 0.02 mg/kg

Q: And the ED50 [2]?
A: 0.7 mg/kg

Q: How did the ED50 [1] turn out when `O=C(O)C(=O)Nc1nc(-c2cccnc2)cs1` [4-[pyridyl-(3')]-thiazolyl-2-oxamic acid ethanolamine salt] was run?
A: 0.16 mg/kg

Q: With `O=C(O)C(=O)Nc1nc(-c2ccncc2)cs1` [4-[pyridyl-(4')]-thiazolyl-2-oxamic acid ethanolamine salt] as the compound, how does the ED50 [1] read?
A: 0.05 mg/kg

Q: For `Cc1sc(NC(=O)C(=O)O)nc1-c1ccccc1` [4-phenyl-5-methyl-thiazolyl-2-oxamic acid], which ED50 [1] is on record?
A: 0.19 mg/kg

Q: And the ED50 [2]?
A: 2.04 mg/kg

Q: How did the ED50 [2] turn out when `CCOC(=O)C(=O)Nc1nc(-c2ccc(O)c(C)c2)cs1` [Ethyl 4-(3'-methyl-4'-hydroxy-phenyl)-thiazolyl-2-oxamate] was run?
A: 2.1 mg/kg

Q: `CCOC(=O)C(=O)Nc1nc(-c2ccc(OCC)cc2)cs1` [Ethyl 4-(4'-ethoxy-phenyl)-thiazolyl-2-oxamate] was tested. Which ED50 [2] did it give?
A: 2.07 mg/kg

Q: How did the ED50 [2] turn out when `CCOC(=O)C(=O)Nc1nc(-c2ccncc2)cs1` [Ethyl 4-[pyridyl-($')]-thiazolyl-2-oxamate] was run?
A: 1.2 mg/kg

Q: How did the ED50 [2] turn out when `COC(=O)C(=O)Nc1nc(-c2ccc(OC)c(OC)c2)cs1` [Methyl 4-(3',4'-dimethoxy-phenyl)-thiazolyl-2-oxamate] was run?
A: 1.2 mg/kg
